Experimental findings from patent US20090299049A1, “Bicyclic Compounds and Their Use” (priority 2006, published 2009) are described below.

SMILES strings stand for the structures. Where only a bound is given, the exact number is not on record here.

For orientation: melting point means the temperature of the solid-liquid transition.

Series [1] can be described thus: UV absorbance and fluorescence of ribonucleoside analogues in DMSO (molar extinction coefficient, quantum yield). To be noted: for Quantum yield: relative to quinine sulphate and anthracene standards. Type of series: physicochemical. From the text: UV absorbance and fluorescence excitation and emission data were used to determine the molar extinction coefficient and fluorescence quantum yield of a several adenosine and guanosine ribonucleoside analogues in DMSO (see the Table below). The data acquired support the concept that the fluorescence properties of these analogues can be tuned by altering the electron-donating or electron-withdrawing R-group on the terminal phenylalkyne. Fourteen electron-donating or electron-withdrawing R-groups were coupled to purine bases at the 8-position. […] This makes the analogues extremely useful for the quantification of analogue-containing nucleic acid products in a DNA or RNA background. […] The position (ortho, meta or para) of the R-group on the phenyl ring can also be used to tune the fluorescent properties of the analogues. The ring position of the R-group has a smaller effect on the fluorescent properties of the analogues. Greater changes in the excitation/emission wavelength, molar extinction coefficient and quantum yield can be induced by changing the type of R-group (electron-donating vs. electron-withdrawing) as compared to the position of a R-group on the phenyl ring (ortho, meta or para). The quantum yields of the unphosphorylated analogues were measured relative to quinine sulphate and anthracene standards. […] This provides additional support for the idea that the purine bases can both push and pull electrons in π-conjugated systems.

Series [2] can be described thus: Optical properties: UV-visible spectra, fluorescence excitation and emission. The format is physicochemical. The following applies: for Stokes shift: (1/λex − 1 λem); for λem: fluorescence emission wavelength; for λex: fluorescence excitation wavelength. From the text: The optical properties of several novel chromophores were investigated. UV-visible spectra reveal an intense absorption in the UV region for all the compounds evaluated.

The target of series [3] is T7 RNA polymerase (Escherichia phage T7, UniProt P00573). In words: Gel-based in vitro transcription assay with the ATP analogue as substrate. To be noted: for Length of RNA products observed: Mg^2+ co-factor, analogue in place of ATP. The format is biochemical, bacteriophage T7. From the text:
(§1) In vitro assays of hepatitis C virus (HCV) and bacteriophage T7 RNA polymerases have been performed using adenosine ribonucleotide triphosphate analogues of the present invention as a substrate (in place of natural ATP). Both unincorporated and incorporated fluorescent purine ribonucleotide analogues could be visualised directly under UV trans-illumination in either agarose or polyacrylamide gels without ethidium bromide staining. The RNA products generated in the transcription assay were characterised by 6% or 20% polyacrylamide gel electrophoresis (PAGE) under denaturing (7 M urea) conditions. […] The expected full-length (˜500 bases) RNA products were not observed by denaturing 6% PAGE. Short RNA products were separated by denaturing 20% PAGE. […] The analogues are also incorporated at a slower rate than the natural substrates. Incorporation of the first and second adenosine (underlined adenosine residues in the Table below) into the RNA product occurs with two templates tested, but adjacent adenosine analogues terminate transcription before the third adenosine in each template is incorporated. Two adjacent adenosine analogues may be too large for the active site, thus RNA synthesis is terminated and the product released.
RNA products formed using the HCV 3′-UTR and T7 φ13 promoter DNA templates in gel-based transcription assays of T7 RNA polymerase and 8-phenylethynyl-adenosine triphosphate: […]

Series [4] concerns the target T1, HCV RNA polymerase (Hepatitis C virus genotype 1a, UniProt P27958).
T1 construct: results with HCV and T7 RNA polymerases using 8-phenylethynyl-adenosine triphosphate as a substrate
In words: In vitro RNA polymerase assay with the ATP analogue as substrate. The format is biochemical.
Text: as §1

[5] abbreviates: Mg^2+ as co-factor, depending on DNA template.

Chain of T7 RNA polymerase (P00573 whole entry): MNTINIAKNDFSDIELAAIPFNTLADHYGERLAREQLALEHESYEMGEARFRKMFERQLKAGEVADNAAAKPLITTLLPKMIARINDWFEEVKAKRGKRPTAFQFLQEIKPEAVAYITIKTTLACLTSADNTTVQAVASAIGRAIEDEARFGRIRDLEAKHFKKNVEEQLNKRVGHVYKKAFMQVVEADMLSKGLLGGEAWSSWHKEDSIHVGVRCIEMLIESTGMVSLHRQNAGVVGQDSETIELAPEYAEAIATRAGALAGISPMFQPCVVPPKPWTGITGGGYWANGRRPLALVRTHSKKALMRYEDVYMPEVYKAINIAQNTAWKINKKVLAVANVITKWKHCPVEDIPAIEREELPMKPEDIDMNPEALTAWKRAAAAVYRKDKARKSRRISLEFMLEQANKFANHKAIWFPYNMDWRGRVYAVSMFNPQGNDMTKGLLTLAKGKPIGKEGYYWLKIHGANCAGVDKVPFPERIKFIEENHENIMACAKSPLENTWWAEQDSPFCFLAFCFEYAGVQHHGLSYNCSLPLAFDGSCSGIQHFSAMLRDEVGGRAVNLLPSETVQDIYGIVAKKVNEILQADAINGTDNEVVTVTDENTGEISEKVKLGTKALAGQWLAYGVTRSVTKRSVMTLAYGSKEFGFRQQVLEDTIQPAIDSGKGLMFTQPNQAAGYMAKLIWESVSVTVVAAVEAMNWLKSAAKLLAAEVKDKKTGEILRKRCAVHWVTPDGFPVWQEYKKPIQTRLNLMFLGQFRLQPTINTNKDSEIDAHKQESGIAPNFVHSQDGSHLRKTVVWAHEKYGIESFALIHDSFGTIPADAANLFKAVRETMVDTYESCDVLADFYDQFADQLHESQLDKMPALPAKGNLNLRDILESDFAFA
T1 sequence (P27958 2421-3011): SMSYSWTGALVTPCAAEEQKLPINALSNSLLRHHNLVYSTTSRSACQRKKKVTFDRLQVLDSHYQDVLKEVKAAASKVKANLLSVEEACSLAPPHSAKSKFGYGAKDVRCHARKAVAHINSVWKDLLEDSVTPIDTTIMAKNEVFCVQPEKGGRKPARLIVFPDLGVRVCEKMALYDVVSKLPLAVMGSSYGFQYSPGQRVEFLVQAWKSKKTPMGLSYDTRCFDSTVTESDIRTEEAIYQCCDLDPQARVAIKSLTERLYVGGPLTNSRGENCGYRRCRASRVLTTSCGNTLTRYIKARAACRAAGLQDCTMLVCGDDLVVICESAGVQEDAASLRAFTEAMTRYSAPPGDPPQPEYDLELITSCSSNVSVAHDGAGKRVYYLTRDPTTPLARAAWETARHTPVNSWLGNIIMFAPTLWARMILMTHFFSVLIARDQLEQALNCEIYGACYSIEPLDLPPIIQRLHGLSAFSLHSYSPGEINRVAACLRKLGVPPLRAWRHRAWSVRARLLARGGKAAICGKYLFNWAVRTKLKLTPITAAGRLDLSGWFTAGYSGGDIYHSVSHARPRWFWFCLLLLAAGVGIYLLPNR

Take `COc1ccc(C#Cc2nc3c(=O)[nH]c(N)nc3n2[C@@H]2O[C@H](CO)[C@@H](O)[C@H]2O)cc1` [Compound 5c, 8-(4-Methoxyphenylethynyl)guanosine]: the melting point was 220 to 224 °C (dec.). In series [1], the Molar absorption coefficient turned out to be 22569 M⁻¹ cm⁻¹, the “Wavelength at fluorescence emission maximum” value is given as 398 nm, the “Wavelength at maximum in UV absorption” value is 330 nm and the Quantum yield worked out at 1.2%. Also, in series [2], the “UV-visible spectrum shift relative to compound 5a (parent)” value is on record as “red-shifted”, the Stokes shift came to 2749 cm⁻¹, the λem is reported as 402 nm and the λex worked out at 362 nm. In addition, in series [2] (inferred from UV-visible spectrum), the “HOMO-LUMO gap relative to compound 5a” value is “smaller HOMO-LUMO gap”.

For the compound `Nc1ncnc2c1nc(C#Cc1ccccc1)n2[C@@H]1O[C@H](COP(=O)(O)OP(=O)(O)OP(=O)(O)O)[C@@H](O)[C@H]1O` [8-phenylethynyl-adenosine triphosphate], the “Length of RNA products observed” value in series [3] (HCV 3′-UTR DNA template) is reported as 6 mer, 9 mer; in series [3] (T7 φ13 promoter DNA template) it was 4 mer, 6 mer. Also, the “RNA transcripts yielded with analogue as substrate” value in series [3] (setting [5]) and in series [4] (setting [5]) was “short RNA transcripts” each time. Further, the “Expected full-length (˜500 bases) RNA products” value in series [3] (denaturing 6% PAGE) and in series [4] (denaturing 6% PAGE) was “not observed” throughout. Moreover, in series [3] (denaturing 20% PAGE), the “Length of small RNA products into which the analogue is incorporated” value is on record as 4-9 bases.

The compound `Nc1nc2c(nc(C#Cc3ccc(C(F)(F)F)cc3)n2[C@@H]2O[C@H](CO)[C@@H](O)[C@H]2O)c(=O)[nH]1` [Compound 5g, 8-(4′-Trifluoromethylphenylethynyl)guanosine] showed a melting point of more than 240 °C. Moreover, in series [1], the “Wavelength at fluorescence emission maximum” value stood at 458 nm, the “Wavelength at maximum in UV absorption” value amounted to 348 nm and the Quantum yield came to 0.74%. In addition, in series [2], the Stokes shift was 4539 cm⁻¹, the λem came to 468 nm and the λex was found to be 386 nm.

For `Nc1nc2c(nc(C#Cc3ccccc3)n2[C@@H]2O[C@H](CO)[C@@H](O)[C@H]2O)c(=O)[nH]1` [Compound 5a, 8-(Phenylethynyl)guanosine], the melting point was 234 to 236 °C (dec.). For the same compound, in series [1], the “Wavelength at fluorescence emission maximum” value was determined as 416 nm, the “Wavelength at maximum in UV absorption” value turned out to be 330 nm and the Quantum yield is recorded as 2.7%. In series [2], the Stokes shift worked out at 4196 cm⁻¹, the λem is recorded as 438 nm and the λex was 370 nm.

Take `CSc1ccc(C#Cc2nc3c(N)ncnc3n2[C@@H]2O[C@H](CO)[C@@H](O)[C@H]2O)cc1` [Compound 6d, 8-(4-Methylsulfanylphenylethynyl)adenosine]: the melting point is 184 to 188 °C (dec.). Besides, in series [1], the Molar absorption coefficient was 26019 M⁻¹ cm⁻¹, the “Wavelength at maximum in UV absorption” value is on record as 338 nm and the Quantum yield was 67%. Also, in series [2], the Stokes shift is 1921 cm⁻¹, the λem amounted to 396 nm and the λex is on record as 368 nm.

In the case of `Nc1ncnc2c1nc(C#Cc1ccc(C(F)(F)F)cc1)n2[C@@H]1O[C@H](CO)[C@@H](O)[C@H]1O` [Compound 6g, 8-(4′-Trifluoromethylphenylethynyl)adenosine], the melting point was 196 to 198 °C (dec.). In series [1], the “Wavelength at fluorescence emission maximum” value was 436 nm, the “Wavelength at maximum in UV absorption” value stood at 333 nm and the Quantum yield is recorded as 8.8%. In addition, in series [2], the Stokes shift was determined as 4897 cm⁻¹, the λem was 440 nm and the λex was 362 nm.

For `Cc1ccc(C#Cc2nc3c(=O)[nH]c(N)nc3n2[C@@H]2O[C@H](CO)[C@@H](O)[C@H]2O)cc1` [Compound 5b, 8-(4′-Methylphenylethynyl)guanosine], the melting point is 222 to 226 °C (dec.). Also, in series [1], the Molar absorption coefficient turned out to be 16591 M⁻¹ cm⁻¹, the “Wavelength at fluorescence emission maximum” value is 409 nm, the “Wavelength at maximum in UV absorption” value is on record as 331 nm and the Quantum yield is 3.1%. In series [2], the Stokes shift was determined as 3452 cm⁻¹, the λem turned out to be 415 nm and the λex stood at 363 nm.

With `COc1ccc(C#Cc2nc3c(N)ncnc3n2[C@@H]2O[C@H](CO)[C@@H](O)[C@H]2O)cc1` [Compound 6c, 8-(4-methoxyphenylethynyl)-adenosine], the melting point is 198 to 202 °C (dec.). Also, in series [1], the Molar absorption coefficient worked out at 18176 M⁻¹ cm⁻¹, the “Wavelength at fluorescence emission maximum” value is listed as 380 nm, the “Wavelength at maximum in UV absorption” value is recorded as 326 nm and the Quantum yield is listed as 24%. In addition, in series [2], the Stokes shift worked out at 1933 cm⁻¹, the λem is given as 380 nm and the λex is 354 nm. Further, in series [2] (compared with the guanosine series), the “Absorption maxima shift relative to compound 7a (parent)” value is “more significant differences”.
